Residues, ends and D or L forms follow the SMILES beside them.
Tested on: E. coli TOP10
Experiment: microarray transcription profile of E. coli TOP10 expressing Novispirin G10 (pDRS5-novispirin, arabinose induced) relative to control strain pBAD gIII A
Format: cell-based, Escherichia coli
Description: In order to obtain a transcriptional profile of E. coli expressing Novispirin G10, 2×10 mL sterile LB media (10 g/L Bactotryptone, 5 g/L Yeast extract, and 10 g/L NaCl) containing 100 mg/L ampicillin was inoculated with E. coli TOP10 harbouring pDRS5-novispirin and pBAD gIII A, respectively. These cultures were grown overnight at 37° C. at 180 rpm. The overnight cultures were diluted 1/100 into fresh sterile RM media (2% Casamino Acids, 0.2% glycerol, 1 mM MgCl2, 0.1 mM thiamine, 6 g/L Na2HPO4, 3 g/L KH2PO4.2H2O, 0.5 g/L NaCl, 0.1 g/L NH4Cl at pH 7.4) supplemented with 100 mg/L ampicillin and 0.1% arabinose. 100 mL of each culture was grown at 37° C., 240 rpm for 4.5 hours before being harvested by poured into centrifugation tubes containing 10 mL pre-frozen milliQ water and immediate centrifugation at 4200 g for 15 minutes at 4° C. Immediately hereafter, the supernatant was decanted and the cell […] was frozen at −20° C. for storage until RNA preparation was initiated.
Total RNA was isolated from the two E. coli (expressing either Novispirin G10 or a control peptide) cultures by use of the High Pure RNA Isolation kit (Roche, cat #1 828 665) according to the manufacturers instructions. Residual DNA was removed on-column with RNase-free DNase. Labelled samples were prepared from 30 μg of total bacterial RNA. Fluorescent first strand cDNA was prepared by random primed reverse transcription (Superscript II; Life Technologies) by use of random hexamers for cDNA synthesis. 2 μl (20 μg) of random primer was mixed with 15 μl (30 μg) of total RNA, incubated for 5 min at 70° C., and cooled on ice. To each sample was added 5× first strand buffer (6 μl), 0.1 M DTT (3 μl), dNTP mix (5 mM dATP, dGTP and dTTP and 2 mM dCTP) (1 μl), RNaseOut (1 μl), Superscript II reverse transcriptase (2 μl) and Cy-dCTP (3 μl). Reverse transcription was carried out at 42° C. for 1 hr. RNA was removed by addition of 10 μl NaOH (1 M) and incubation at 65° C. for 10 min. The samples were neutralised by addition of 10 μl HCl (1 M). Cy3 and Cy5 cDNA samples were mixed and immediately purified with a GFX PCR DNA and Gel Band Purification Kit (Amersham Biosciences).
Slides were pre-hybridised at 42° C. for 45 min in a solution containing 4×SSC+0.5% SDS+1% BSA and dried by centrifugation. Hybridizations were in a volume of 25 μl under a supported cover slip at 42° C. for 16-18 h at high humidity. The hybridisation mixture was labelled cDNA in a formamide-based hybridisation buffer (MWG—supplied with the pan-arrays). Cover slip and supports were gently removed (2×SSC in a wash tray) and arrays were washed by immersion into 2×SSC+0.1% SDS for 5 min, 1×SSC+0.1% SDS for 5 min, 0.5×SSC for 5 min and 1× millipore water for 10 sec and dried by centrifugation. Slides were scanned on a GMS 418 scanner to detect Cy3 and Cy5 fluorescence. Data analysis was carried out using ImaGene 5.0 and GeneSight 3.5 from BioDiscovery (www.biodiscovery.com). Two biological replicate experiments with four replicate hybridisations in each experiment were carried out for generation of data.
Pan E. coli K12 Arrays from MWG Biotech were used in this study (lot No.: 020206). The 4239 E. coli K12 specific oligonucleotide probes present on this glass-based DNA chip represent the complete Escherichia coli (K12) genome
Gene expression data was analyzed using the GeneSight 4.1.5 software from BioDiscovery. Data was prepared using local background correction, removal of flagged spots (contaminated background or signal), floor value raising data to a minimum value of 20, calculation of ratio, log(2) transformation of ratios, print-tip lowess normalization, and finally combination of replicate spot.

CC[C@H](C)[C@H](NC(=O)CNC(=O)[C@H](CCCCN)NC(=O)[C@H](CCCNC(=N)N)NC(=O)[C@@H](NC(=O)[C@@H](NC(=O)[C@H](CCCNC(=N)N)NC(=O)[C@H](CCCNC(=N)N)NC(=O)[C@H](CC(C)C)NC(=O)[C@H](CC(N)=O)NC(=O)[C@@H](N)CCCCN)[C@@H](C)CC)[C@@H](C)CC)C(=O)N[C@@H](Cc1c[nH]cn1)C(=O)N[C@H](C(=O)N[C@H](C(=O)N[C@@H](CCCCN)C(=O)N[C@@H](CCCCN)C(=O)N[C@@H](Cc1ccc(O)cc1)C(=O)NCC(=O)O)[C@@H](C)CC)[C@@H](C)CC [Novispirin G10] (H-KNLRRIIRKGIHIIKKYG-OH; N-terminus assumed)
ratio, gene abrB: −6.2 | ratio, gene ackA: −4.8 | ratio, gene adhP: 3.8 | ratio, gene aer: 14.3 | ratio, gene agaZ: −2.9 | ratio, gene ais: 14.1 | ratio, gene amyA: 5.8 | ratio, gene ansB: −3.8 | ratio, gene appB: 47.2 | ratio, gene appC: 3.5 | ratio, gene argA: 3.8 | ratio, gene aspA: −5.7 | ratio, gene asr: 19.2 | ratio, gene atpC: 3.1 | ratio, gene b0919: −2.8 | ratio, gene b1044: −3.0 | ratio, gene b1354: 3.0 | ratio, gene b1355: 5.0 | ratio, gene b1362: −14.9 | ratio, gene b1394: 2.8 | ratio, gene b1408: 3.3 | ratio, gene b1422: 3.0 | ratio, gene b1450: 4.8 | ratio, gene b1454: 9.7 | ratio, gene b1518: −3.8 | ratio, gene b1520: 3.2 | ratio, gene b1582: 6.8 | ratio, gene b1583: 4.3 | ratio, gene b1593: −5.0 | ratio, gene b1605: 3.0 | ratio, gene b1627: 3.5 | ratio, gene b1643: 4.5 | ratio, gene b1691: 3.7 | ratio, gene b1721: 98.3 | ratio, gene b1724: 9.1 | ratio, gene b1825: 8.7 | ratio, gene b1826: 4.6 | ratio, gene b1836: 6.9 | ratio, gene b1837: 5.3 | ratio, gene b1903: −3.1 | ratio, gene b1953: 3.8 | ratio, gene b1995: −3.1 | ratio, gene b2097: 8.1 | ratio, gene b2253: 8.4 | ratio, gene b2254: 5.5 | ratio, gene b2256: 4.0 | ratio, gene b2324: −4.0 | ratio, gene b2372: 3.8 | ratio, gene b2383: −4.1 | ratio, gene b2809: 3.4 | ratio, gene b2833: 5.1 | ratio, gene b2879: 2.9 | ratio, gene b3023: 3.9 | ratio, gene b3100: 9.9 | ratio, gene blc: 4.9 | ratio, gene bolA: 13.0 | ratio, gene btuE: 3.4 | ratio, gene btuR: −2.8 | ratio, gene celF: 4.1 | ratio, gene cheR: 6.8 | ratio, gene clpB: −3.6 | ratio, gene codA: 3.4 | ratio, gene crcA: 11.7 | ratio, gene csgF: 2.8 | ratio, gene dacC: 3.6 | ratio, gene dcuC: −6.2 | ratio, gene deoA: 3.8 | ratio, gene deoB: 3.0 | ratio, gene deoR: 2.9 | ratio, gene dgt: −2.7 | ratio, gene dksA: 4.1 | ratio, gene dnaJ: −3.0 | ratio, gene dnaK: −2.8 | ratio, gene dps: 4.4 | ratio, gene ebgR: −3.0 | ratio, gene ecpD: −3.7 | ratio, gene elaB: 9.7 | ratio, gene entF: −3.2 | ratio, gene evgA: −2.9 | ratio, gene fadL: −2.6 | ratio, gene fdnG: −3.3 | ratio, gene fecE: −2.7 | ratio, gene fecR: −3.6 | ratio, gene feoA: −6.1 | ratio, gene feoB: −5.2 | ratio, gene fepC: −2.7 | ratio, gene fhuE: −2.7 | ratio, gene fimC: 3.8 | ratio, gene flgG: −2.6 | ratio, gene flhB: −2.8 | ratio, gene flhD: −2.7 | ratio, gene fliD: 5.4 | ratio, gene fliJ: −3.1 | ratio, gene fliQ: 4.5 | ratio, gene folA: 3.2 | ratio, gene frdC: −5.0 | ratio, gene frwB-r: 4.0 | ratio, gene gabP: 8.2 | ratio, gene gabT: 6.5 | ratio, gene gapC_1: 3.3 | ratio, gene gatA: −3.0 | ratio, gene gatC: −2.7 | ratio, gene gatD: −3.2 | ratio, gene gatY: −6.2 | ratio, gene gatz: −6.8 | ratio, gene gcvH: −3.9 | ratio, gene gcvT: −4.8 | ratio, gene glk: 3.4 | ratio, gene glpA: −2.7 | ratio, gene glpA-r: −2.9 | ratio, gene glpB: −7.8 | ratio, gene glpC: −5.9 | ratio, gene glpT: −3.6 | ratio, gene gltB: −2.7 | ratio, gene gntT: −4.3 | ratio, gene grpE: −3.0 | ratio, gene hdeA: 7.7 | ratio, gene hdeB: 7.9 | ratio, gene hdeD: 4.3 | ratio, gene hemL: 8.3 | ratio, gene hisC: −4.5 | ratio, gene hscA: 3.2 | ratio, gene hslU: −3.2 | ratio, gene hslV: −3.0 | ratio, gene hybB: −2.9 | ratio, gene hyfD: −2.9 | ratio, gene hypB: −3.4 | ratio, gene hypC: −3.0 | ratio, gene hypE: −3.9 | ratio, gene ibpB: −6.5 | ratio, gene katE: 9.9 | ratio, gene lacY: −2.7 | ratio, gene lacZ: −9.1 | ratio, gene lon: −2.9 | ratio, gene malE: 4.6 | ratio, gene malM: 4.0 | ratio, gene mcrA: 3.9 | ratio, gene menA: −2.9 | ratio, gene menB: 2.9 | ratio, gene metE: 4.0 | ratio, gene mfd-r: −4.6 | ratio, gene mglC: −2.6 | ratio, gene mgtA: 7.5 | ratio, gene minD: −2.9 | ratio, gene mlc: −2.6 | ratio, gene mopA: −3.6 | ratio, gene mopB: −9.1 | ratio, gene mrr: 2.9 | ratio, gene nagA: 3.7 | ratio, gene nagB: 8.8 | ratio, gene napD: −3.5 | ratio, gene napF: −3.2 | ratio, gene napH: −7.9 | ratio, gene narU: 15.1 | ratio, gene narX: −4.0 | ratio, gene narY: 11.0 | ratio, gene narZ: 4.9 | ratio, gene ndh: 3.1 | ratio, gene nirB: −2.9 | ratio, gene nirC: −3.0 | ratio, gene nirD: −5.7 | ratio, gene nmpC: −6.6 | ratio, gene nrfA: −12.7 | ratio, gene ompF: −4.5 | ratio, gene ompX: 4.7 | ratio, gene osmC: 7.2 | ratio, gene osmE: 11.7 | ratio, gene osmY: 6.4 | ratio, gene otsA: 5.2 | ratio, gene otsB: 5.6 | ratio, gene pepB: 4.7 | ratio, gene pheP: 3.4 | ratio, gene phnE: 4.6 | ratio, gene phoP: 2.8 | ratio, gene phoQ: 3.7 | ratio, gene potG: 4.0 | ratio, gene poxB: 3.3 | ratio, gene pphA: 5.2 | ratio, gene proW: 7.9 | ratio, gene pspA: 6.7 | ratio, gene pspB: 6.9 | ratio, gene pspC: 15.8 | ratio, gene pspD: 13.5 | ratio, gene pspE: 9.4 | ratio, gene pssA: −2.8 | ratio, gene ptsP-r: −3.9 | ratio, gene pyrE: 4.2 | ratio, gene queA: −2.9 | ratio, gene rcsA: −2.8 | ratio, gene rfaJ: −2.6 | ratio, gene rfaP: −3.0 | ratio, gene rmf-r: 3.9 | ratio, gene rnt: 3.9 | ratio, gene rpiR: −3.1 | ratio, gene rpoB-r: 2.8 | ratio, gene rpsV: 5.2 | ratio, gene rstB: 3.6 | ratio, gene sfcA: 5.8 | ratio, gene sfmC: 11.4 | ratio, gene sfsA: 6.4 | ratio, gene slp: 3.6 | ratio, gene smp: −3.2 | ratio, gene sohA: 4.3 | ratio, gene speG: 3.8 | ratio, gene srlA: −2.7 | ratio, gene srlR: −2.6 | ratio, gene talA: 11.7 | ratio, gene tdcB: −2.7 | ratio, gene tdcC: −5.1 | ratio, gene thrB: 3.3 | ratio, gene tktB: 26.5 | ratio, gene tolC: 3.9

Reference: patent US20090239757A1, “Control Sequences Responding to AMP and Uses Thereof” (priority 2004, published 2009)
